# Test results taken from US3954726A, “Double salts of S-adenosil-L-methionine” (Bioresearch Limited, priority 1973, dated 1976).
# Where a name gives a salt, the structure may show the parent alone. Read-outs that look alike come from different tables or passages of the source.
# Legend:
# [1] = dry state
# Excerpt: (§3) The figures refer to the percentage of SAM residue after the times indicated:
# [2] = Clinical: Parkinsons disease and Parkinsonisms, in association with Levodopa; type: in vivo, human
# [3] = Randal and Drlitto test (analgesia); type: in vivo; settings: rat
# Excerpt: (§1) Ot the various tests we shall mention the most classic, namely the edema by carragenine and by egg white as a test for acute inflammation; and granuloma by cotton […] arthritis by adjuvant as a test for chronic inflammation. […] The analgesia tests were in the form of the hot plate tests and stretching by acetic acid, and the Randal and Drlitto tests in the rat.
# [4] = Hepatic cholesterol degeneration in the rat (Ridout diet); type: in vivo; settings: 3 weeks; for Fresh liver weight: cholesterol diet
# Protocol: In studying the hepatoprotective activity we have used an experimental device which produces in the rat the so-called hepatic cholesterol degeneration (Ridout and Coll., Biochem. J. 52, 99, 1952).
# In this method, by means of a suitable diet, a conspicuous increase in the total hepatic fats and hepatic cholesterol are obtained in the animals. The substances which act in the lipidic metabolism reduce or annul this increase.
# The animals were divided into six groups. The first group was administered with a diet which was varied at will. The second group was administered with the basic diet of Ridout (20 g per rat per day); the other groups were administered with the same diet in the same doses but enriched with cholesterol to the extent of 0.2 g/rat/day. The treatment lasted 3 weeks.
# The groups 4,5,6 were administered with SAM in the following doses: 1,2,5 mg/kg/i.p. per day.
# At the end of 3 weeks all the animals were killed, the livers were withdrawn and the total fats (Best and Coll., Biochem. J. 40, 368, […]) and cholesterol (Sperry and Brand, J. Biol. Chem. 150, 315, 1943) were determined.
# rabbit [5] = settings: in vivo, 40 mg/kg
# physchem [6] = type: physicochemical
# [7] = Edema by carragenine (acute inflammation); type: in vivo; settings: orally 20-100 mg/kg and parenterally 10-20 mg/kg
# Excerpt: as §1
# physchem [8] = settings: dry state, percentage of SAM residue
# Excerpt: as §3
# [9] = Hepatic phospholipids in rats after intoxication with CCl4; type: in vivo, rat; settings: for Total phospholipids: average ± E.S. of 10 values
# Excerpt: This was confirmed by successive pharmacological tests. […] Hepatic phospholipids in rats after intoxication with CCl4 and treatment with SAM.
# [10] = Edema by egg white (acute inflammation); type: in vivo; settings: orally 20-100 mg/kg and parenterally 10-20 mg/kg
# Excerpt: as §1
# [11] = Hexobarbital sleeping time in mice; type: in vivo, mouse
# Protocol: A further aspect considered by us was the possible action of SAM on the sleeping time by barbiturates. For this purpose an experiment was made in which groups of mice received hexobarbital in a dose of 80 mg/kg/i.p. in accordance with the method of Holten and Larsen (Acta Pharmacol. […] (table).
# [12] = type: in vivo, human
# [13] = Hot plate test (analgesia); settings: rat, in vivo
# Excerpt: as §1
# [14] = Clinical: hypoprotidemias, disprotidemias, hepatopathias, cyrrotic states, malabsorption; type: in vivo, human; settings: 20-200 mg per day
# Protocol: 2. Hundreds of subjects were treated clinically affected with: secondary hypoprotidemias and disprotidemias; persistent and aggressive cronic hepatopathias; precyrrotic and cyrrotic states; malabsorption syndromes, protide dispersing syndromes.
# man = assay: Tolerability in young volunteer healthy subjects (pressure, pulse, respiration, ECG, hemopoietic, hepatic and renal); type: in vivo
# [15] = Stretching by acetic acid (analgesia); settings: rat, in vivo
# Excerpt: as §1
# [16] = Arthritis by adjuvant (chronic inflammation); type: in vivo; settings: orally 20-100 mg/kg and parenterally 10-20 mg/kg
# Excerpt: as §1
# [17] = Clinical: metabolism of lipids (hepatosteatosis, hyperdislipidemia); type: in vivo, human
# Excerpt: Following the information gained from the pharmacological tests, the clinical tests were orientated on morbid affections in which the following appear primitively or secondarily altered: […]
# [18] = rat, in vivo, 10 mg/kg
# Protocol: (§2) Sam^+.hso4^-.h2 so4 .2 ch3 c6 h4 so3 h and/or SAM^+.HSO4^-.H2 SO4.CH3 C6 H4 SO3 H. In order to indicatively determine how SAM is distributed in the tissues, S-Adenosilmethionine (Methyl C^14) was prepared. The distribution of this product in rats was studied by administering a dose of 10 mg/kg/e.v. equal to 24 μci of radioactive product. The specific activity of the product was 58 mCi/m moles. Parallel to this, an autoradiographic study was made on the mouse.
# Distribution of SAM in some rat tissues.
# The values are expressed as μgr/gr.
# [19] = Hepatic steatosis in rats (Handler diet, acute alcoholic intoxication, carbon tetrachloride, bromobenzene); type: in vivo, rat
# Excerpt: This was confirmed by successive pharmacological tests.
# cat = settings: in vivo, 40 mg/kg
# [20] = Clinical: disturbances of the sleeping-waking rhythm; type: in vivo, human; settings: 10-30 mg orally, insomnia
# rabbits = settings: rabbit, in vivo
# [21] = Clinical: arteriosclerosis, hypoxydotic states, post-apoplectic syndromes; type: in vivo, human
# [22] = Clinical: depressive forms (tests of Hamilton and Wittenberg); type: in vivo, human; settings: 20-50 mg 3-4 times per day, 5-15 days, no other therapy
# [23] = Clinical: antalgic activity in neurological frameworks and cephalalgia; type: in vivo, human
# Protocol: The antalgic activity of SAM was also tested in different subjects with different neurological frameworks: neuritis, polyneuritis, anthralgia, sciatica, radiocolitis, torticollis.
# [24] = Granuloma by cotton peelets (chronic inflammation); type: in vivo; settings: orally 20-100 mg/kg and parenterally 10-20 mg/kg
# Excerpt: as §1
# rabbit [25] = assay: Local tolerability of intermuscular and intravenous injection; type: in vivo
# rats = settings: rat, in vivo
# [26] = mouse, in vivo
# Protocol: as §2
# [27] = Toxicity, overall statement; settings: in vivo
# [28] = Acute toxicity (DL50) in the mouse; settings: in vivo
# Excerpt: In particular, the DL50 in the mouse is greater than 6 g/kg/os and 2.5 g/kg/i.p.
# [29] = Stability with time at 45°C, dry state (percentage of SAM residue); settings: same conditions as Table 1
# Excerpt: as §3
# [30] = intermuscular, intravenous or oral
# [31] = hyperdislipidemia in the uncompensated stage
structure (smiles),measurement,setting,value
C[S+](CC[C@H](N)C(=O)O)C[C@H]1O[C@@H](n2cnc3c(N)ncnc32)[C@H](O)[C@@H]1O (stereo partly drawn) [Chloride],percentage of SAM residue,[1]; 720 h,20%
"N[C@@H](Cc1ccc(O)c(O)c1)C(=O)O [Levodopa, reference compound]",Parkinson tremor,[2]; Levodopa alone,cannot be modified
C[S+](CC[C@H](N)C(=O)O)C[C@H]1O[C@@H](n2cnc3c(N)ncnc32)[C@H](O)[C@@H]1O (stereo partly drawn) [Sulphate],percentage of SAM residue,[1]; 720 h,50%
same,percentage of SAM residue,[1]; 1440 h,5%
"C[S+](CC[C@H](N)C(=O)O)C[C@H]1O[C@@H](n2cnc3c(N)ncnc32)[C@H](O)[C@@H]1O (stereo partly drawn) [SAM, SAM disulphate di-p-toluenesulphonate]","analgesic activity, Randal and Drlitto test",[3],active
same,protection from hepatic cholesterol degeneration,[4]; 5 mg/kg,completely protected
same,protection from hepatic cholesterol degeneration,[4]; 1-2 mg/kg/i.p.,poorly protected
same,Fresh liver weight,"[4]; Batch IV, SAM 1 mg/kg/i.p. per day",17 g
same,Fresh liver weight,"[4]; Batch V, SAM 2 mg/kg/i.p. per day",16 g
same,Fresh liver weight,"[4]; Batch VI, SAM 5 mg/kg/i.p. per day",16 g
same,"change in carotid pressure, cardiac and respiratory frequency or electrocardiac trace",rabbit [5],does not cause any change
same,hygroscopicity,physchem [6]; crystalline salt,not very hygroscopic
same,solubility,physchem [6]; water,> 200 mg/mL
same,"antiinflammatory activity, edema by carragenine",[7],active
same,remaining at 2880 h,physchem [8],100%
same,remaining at 4320 h,physchem [8],100%
same,Total phospholipids,[9]; CCl4 + SAM 15 mg/kg/i.p.,27.20 ± 1.25 mg/g
same,Total phospholipids,[9]; CCl4 + SAM 150 mg/kg/i.p.,20.87 ± 0.42 mg/g
same,levels of phospholipids reduced after intoxication with CCl4,"[9]; rats, CCl4",favours the restoration of normal levels of phospholipids
same,"antiinflammatory activity, edema by egg white",[10],active
same,prolonging the sleeping time induced by hexobarbital,[11]; 10 mg/kg/i.p.,active in prolonging the sleeping time
same,Sleeping time,"[11]; SAM 10 mg/kg/i.p., hexobarbital 80 mg/kg/i.p.",41.2 ± 5.8 min
same,activity in osteoarthritic forms,"[12]; 30 mg twice a day i.m. or i.v., and 30-50 mg orally 4 times per day",active in all osteoarthritic forms treated
same,"muscular spasm, limitation of movement, localised pain, rigidity","[12]; after 7 days of treatment, versus placebo",influenced in a statistically significant manner
same,therapeutic efficiency compared with indomethacin,[12]; double blind study,equal to indomethacin
same,concealed blood in the feces,"[12]; human, in vivo",never showed any modification
same,gastric pyrosis,"[12]; human, in vivo",No case
same,percentage of SAM residue,[1]; 720 h,100.1%
same,percentage of SAM residue,[1]; 1440 h,99.9%
same,"analgesic activity, hot plate",[13],active
same,subjective symptomology and general objective conditions,[14],often very important improvement
same,tests of hepatic functionality,[14],normalizing of all the tests of hepatic functionality
same,albumin amount,[14]; [30],an increase in the albumin amount
same,altered percentage ratios between the electrophoretic fractions of the serum,[14]; [30],tendency to normalise
same,total protidemia,[14]; [30],statistically significant increase
same,"electrocardiograph trace (PQ interval, ST section, extrasistol)","man; 30"" to 20' from administration",does not show any variations
same,"hemopoietic apparatus, hepatic and renal operation",man; man,no variations which were statistically significant from normal
same,"minimum and maximum pressure, pulse and respiratory frequency","man; rapid intravenous or phleboclysis, 10-300 mg, 1 minute to 24 hours",does not show any variation from normal values
same,"analgesic activity, stretching by acetic acid",[15],active
same,"antiinflammatory activity, arthritis by adjuvant",[16],active
same,hypocholesterolemising and hypolipemising action,[17]; about 20-30 mg administered 2-3 times per day,proportional to the dose
same,hepatic lipids in hepatosteatosis,"[17]; bioptic examination, even after 60 days from the end of treatment",rapid fall in the hepatic lipids
same,altered β/α lipoproteic ratios,[17]; [31],normalises the altered β/α lipoproteic ratios
same,total cholesterolemia and hypertriglyceridemia,[17]; [31],marked fall
same,distribution to the tissues,[18],distributed very rapidly to all the tissues
same,accumulation of lipids at the hepatocite level,[19],significantly reduced the accumulation of lipids
same,"change in carotid pressure, cardiac and respiratory frequency or electrocardiac trace",cat,does not cause any change
same,altered sleeping-waking ratios,[20],considerably improve
same,tetratogenic actions or malformations,rabbits,no tetratogenic actions were encountered or any malformations in the embryons or terminal feti
same,Parkinson tremor,[2]; 10-40 mg per day with Levodopa,favourable modifications
same,akinesia and rigidity,"[2]; 10-40 mg per day with Levodopa, versus Levodopa only",statistically more significant improvement
same,Levodopa side effects,"[2]; 10-40 mg per day with Levodopa, nausea, vomit, inappetite, hypotension, asthenia, cephalea, hypersudoration, insomnia",significantly blocks
same,Levodopa-dependent psychic disturbances,[2]; with Levodopa,distinctly improves
same,recovery of functions in clear hypoxydotic states,[21]; hypoxydotic states,very quick and statistically significant
same,symptomatology of arteriosclerosis,"[21]; intramuscular, intravenous or phleboclysis, 20-40 mg 3-4 times per day",very favourable modification of the sumptomatology
same,improvement of the clinical framework in post-apoplectic syndromes,[21]; post-apoplectic syndromes,greater rapidity was found in the improvement of the clinical framework
same,remission of the main parameters for the diagnosis of depressive forms,[22],significant remission
same,antalgic effect in neurological frameworks,[23]; 15 mg twice a day intermuscular or 30-50 mg 3-4 times per day orally,available and efficient from the first day of administration
same,recurring and resistant cephalalgia,[23]; orally in masticable tablets,Analogous results
same,"antiinflammatory activity, granuloma by cotton peelets",[24],active
same,local tolerability,"rabbit [25]; intermuscular injection, repeated over 180 days",excellent
same,local tolerability,"rabbit [25]; intravenous, marginal vein of the auricular pavillon, rabbit",excellent
same,tetratogenic actions or malformations,rats,no tetratogenic actions were encountered or any malformations in the embryons or terminal feti
same,distribution to the tissues,[26],distributed very rapidly to all the tissues
C[S+](CC[C@H](N)C(=O)O)C[C@H]1O[C@@H](n2cnc3c(N)ncnc32)[C@H](O)[C@@H]1O (stereo partly drawn) [SAM salt],toxicity,[27],"absolutely free from acute toxicity, chronic toxicity, local intolerance or secondary effects"
same,LD50,[28]; ip,> 2500 mg/kg
same,LD50,"[28]; po, os",> 6000 mg/kg
"C[S+](CC[C@H](N)C(=O)[O-])C[C@H]1O[C@@H](n2cnc3c(N)ncnc32)[C@H](O)[C@@H]1O (stereo partly drawn) [Ad-Met, reference compound]",Total phospholipids,[9]; CCl4 + Ad-Met 15 mg/kg/i.p.,19.9 ± 0.92 mg/g
C[S+](CC[C@H](N)C(=O)O)C[C@H]1O[C@@H](n2cnc3c(N)ncnc32)[C@H](O)[C@@H]1O.Cc1ccc(S(=O)(=O)O)cc1.O=S(=O)(O)O.O=S(=O)([O-])O (stereo partly drawn) [di-sulphate mono-p.toluenesulphonate],stability values compared with di-sulphate di-p.toluenesulphonate,[29],completely equivalent
